Measurements reported in PubChem BioAssay AID330 (DTP/NCI, 2004).
Values joined by “and” are separate entries in the source; they are usually repeats but may differ in a detail not shown here. Identical values can stand only once. Inconclusive results and toxic doses are left out. Rule for the calls: active = survival T/C of 150% or more; inactive = T/C below 125% in these data. Peptide text beside a SMILES is read from it.

Tested on: P388 leukemia ip, CD2F1 mice, survival T/C
Assay: NCI In Vivo Anticancer Drug Screen. Data for tumor model P388 Leukemia (intraperitoneal) in CD2F1 (CDF1) mice
Conditions: endpoint: median survival time, higher = longer survival
Outline: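 Mice carrying the transplanted tumor received test compound or vehicle. Survival was recorded in each group, and the value is the treated-group measurement divided by that of the vehicle-treated control group.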

[1] = dose: 100.0 mg/kg/injection, schedule: Q04DX003 (ip), vehicle: saline with Tween-80
[2] = dose: 25.0 mg/kg/injection, schedule: Q01DX009 (ip), vehicle: saline with Tween-80
[3] = dose: 100.0 mg/kg/injection, schedule: Q01DX009 (ip), vehicle: saline with Tween-80
[4] = dose: 200.0 mg/kg/injection, schedule: Q01DX009 (ip), vehicle: saline with Tween-80
[5] = dose: 50.0 mg/kg/injection, schedule: Q01DX009 (ip), vehicle: Klucel (hydroxypropylcellulose) (HPC)
[6] = dose: 100.0 mg/kg/injection, schedule: Q01DX009 (ip), vehicle: Klucel (hydroxypropylcellulose) (HPC)
[7] = dose: 50.0 mg/kg/injection, schedule: Q01DX005 (ip), vehicle: Klucel (hydroxypropylcellulose) (HPC)
[8] = dose: 100.0 mg/kg/injection, schedule: Q01DX005 (ip), vehicle: Klucel (hydroxypropylcellulose) (HPC)
[9] = dose: 200.0 mg/kg/injection, schedule: Q01DX005 (ip), vehicle: Klucel (hydroxypropylcellulose) (HPC)
[10] = dose: 50.0 mg/kg/injection, schedule: Q01DX009 (ip), vehicle: saline
[11] = dose: 100.0 mg/kg/injection, schedule: Q01DX009 (ip), vehicle: saline
[12] = dose: 200.0 mg/kg/injection, schedule: Q01DX009 (ip), vehicle: saline
[13] = dose: 50.0 mg/kg/injection, schedule: Q01DX005 (ip), vehicle: saline with Tween-80
[14] = dose: 100.0 mg/kg/injection, schedule: Q01DX005 (ip), vehicle: saline with Tween-80
[15] = dose: 200.0 mg/kg/injection, schedule: Q01DX005 (ip), vehicle: saline with Tween-80

Measured: T/C

CCN(CC)CC[n+]1ccc2c(C)c3[nH]c4ccccc4c3c(C)c2c1
inactive: dose: 0.63 mg/kg/injection, schedule: Q04DX002 (ip), vehicle: water 110 % of control | dose: 0.78 mg/kg/injection, schedule: Q04DX003 (ip), vehicle: water 106 % of control | dose: 1.25 mg/kg/injection, schedule: Q04DX002 (ip), vehicle: water 115 % of control | dose: 1.56 mg/kg/injection, schedule: Q04DX003 (ip), vehicle: water 107 % of control and 120 % of control | dose: 2.5 mg/kg/injection, schedule: Q04DX002 (ip), vehicle: water 122 % of control | dose: 3.12 mg/kg/injection, schedule: Q04DX003 (ip), vehicle: water 123 % of control | dose: 6.25 mg/kg/injection, schedule: Q04DX003 (ip), vehicle: water 124 % of control | dose: 12.5 mg/kg/injection, schedule: Q04DX003 (ip), vehicle: water 124 % of control

O=C(NC1CC1)OCc1c(COC(=O)NC2CC2)c(-c2ccc(Cl)c(Cl)c2)n2c1CCC2
active: dose: 6.25 mg/kg/injection, schedule: Q01DX009 (ip), vehicle: distilled water + Tween-80 160 % of control | dose: 12.5 mg/kg/injection, schedule: Q01DX009 (ip), vehicle: distilled water + Tween-80 171 % of control and 183 % of control
101 % of control and 206 % of control: dose: 25.0 mg/kg/injection, schedule: Q01DX009 (ip), vehicle: distilled water + Tween-80

COc1ccc(OC)c(C2N(Cc3ccccc3N(C)C)CCCN2Cc2ccccc2N(C)C)c1
inactive: dose: 50.0 mg/kg/injection, schedule: Q04DX003 (ip), vehicle: saline with Tween-80 91 % of control | [1] 87 % of control

COC(=O)/C=C\C=C(\CBr)C(=O)OC
inactive: dose: 6.25 mg/kg/injection, schedule: Q01DX009 (ip), vehicle: saline with Tween-80 91 % of control | dose: 6.25 mg/kg/injection, schedule: Q04DX003 (ip), vehicle: saline 110 % of control | dose: 12.5 mg/kg/injection, schedule: Q01DX009 (ip), vehicle: saline with Tween-80 95 % of control | dose: 12.5 mg/kg/injection, schedule: Q04DX003 (ip), vehicle: saline 110 % of control | [2] 91 % of control | dose: 25.0 mg/kg/injection, schedule: Q04DX003 (ip), vehicle: saline 110 % of control

O=c1cc(O)n2ncnc2[nH]1
inactive: [2] 101 % of control | dose: 50.0 mg/kg/injection, schedule: Q01DX009 (ip), vehicle: saline with Tween-80 104 % of control | [3] 104 % of control | [4] 99 % of control

Cc1ccnc(NC(=O)Nc2cc(Cl)ccc2Cl)c1
inactive: [5] 100 % of control | [6] 87 % of control

C[C@]12CC[C@H]3[C@@H](CC=C4C[C@@H](O)CC[C@@]43C)[C@@H]1CC[C@@H]2N(CCO)CCO
inactive: [7] 96 % of control | [8] 100 % of control | [9] 97 % of control

O=C1SC/C(=N\N=C2/CSC(=O)N2Cc2ccccc2)N1Cc1ccccc1
inactive: [7] 87 % of control | [8] 93 % of control | [9] 88 % of control

CCCCCCCCCC#CC(=O)OC
inactive: [10] 105 % of control | [11] 105 % of control | [12] 105 % of control

CC(C)c1ncc(CO)n1Cc1c(Cl)cccc1Cl
inactive: [5] 100 % of control | [6] 102 % of control | dose: 200.0 mg/kg/injection, schedule: Q01DX009 (ip), vehicle: Klucel (hydroxypropylcellulose) (HPC) 100 % of control

CN1CCc2cc3c(cc2C(=O)Cc2ccc4c(c2CO1)OCO4)OCO3
inactive: dose: 2.75 mg/kg/injection, schedule: Q01DX005 (ip), vehicle: Klucel (hydroxypropylcellulose) (HPC) 99 % of control | dose: 5.5 mg/kg/injection, schedule: Q01DX005 (ip), vehicle: Klucel (hydroxypropylcellulose) (HPC) 94 % of control | dose: 11.0 mg/kg/injection, schedule: Q01DX005 (ip), vehicle: Klucel (hydroxypropylcellulose) (HPC) 96 % of control | dose: 22.0 mg/kg/injection, schedule: Q01DX005 (ip), vehicle: Klucel (hydroxypropylcellulose) (HPC) 99 % of control

CC(C)C(NC(=O)C1CCCN1)C(=O)O (stereo not drawn) (H-Pro-Val-OH; configuration not given here)
inactive: [10] 103 % of control | [11] 99 % of control | [12] 100 % of control

CCN(CC)c1ccc2[nH]c3c(C(N)=O)cc(=O)c(=O)c=3oc2c1
inactive: dose: 12.5 mg/kg/injection, schedule: Q01DX005 (ip), vehicle: saline with Tween-80 104 % of control and 107 % of control | dose: 25.0 mg/kg/injection, schedule: Q01DX005 (ip), vehicle: saline with Tween-80 104 % of control and 117 % of control | [13] 107 % of control and 120 % of control | [14] 113 % of control and 122 % of control and 123 % of control

CC(=O)N1C=[N+](C)C(C)(C)C1
inactive: dose: 100.0 mg/kg/injection, schedule: Q04DX003 (ip), vehicle: saline 103 % of control | dose: 200.0 mg/kg/injection, schedule: Q04DX003 (ip), vehicle: saline 90 % of control

Cc1cc2oc3c(c2c(=O)[nH]1)C(=O)c1ccccc1C3=O
inactive: dose: 60.0 mg/kg/injection, schedule: Q01DX005 (ip), vehicle: saline with Tween-80 100 % of control | dose: 120.0 mg/kg/injection, schedule: Q01DX005 (ip), vehicle: saline with Tween-80 94 % of control | dose: 240.0 mg/kg/injection, schedule: Q01DX005 (ip), vehicle: saline with Tween-80 91 % of control

Cc1cccc([NH-])n1.Cc1cccc([NH-])n1.Cc1cccc([NH-])n1.Cc1cccc([NH-])n1.[Cl][Rh][Cl]
inactive: dose: 6.25 mg/kg/injection, schedule: Q01DX009 (ip), vehicle: DMSO 101 % of control | dose: 12.5 mg/kg/injection, schedule: Q01DX009 (ip), vehicle: DMSO 99 % of control | dose: 25.0 mg/kg/injection, schedule: Q01DX009 (ip), vehicle: DMSO 101 % of control | [10] 101 % of control

ON1c2ccccc2-c2ccccc2C1(c1ccccc1)c1ccccc1
inactive: [13] 94 % of control | [14] 99 % of control | [15] 90 % of control

O=C1c2ccccc2C(=O)c2c(O)c(NCCCNCCO)cc(O)c21
inactive: dose: 2.5 mg/kg/injection, schedule: Q01DX009 (ip), vehicle: acid diluted with saline 103 % of control | dose: 5.0 mg/kg/injection, schedule: Q01DX009 (ip), vehicle: acid diluted with saline 108 % of control | dose: 10.0 mg/kg/injection, schedule: Q01DX009 (ip), vehicle: acid diluted with saline 103 % of control | dose: 20.0 mg/kg/injection, schedule: Q01DX009 (ip), vehicle: acid diluted with saline 112 % of control | dose: 40.0 mg/kg/injection, schedule: Q01DX009 (ip), vehicle: acid diluted with saline 111 % of control | dose: 80.0 mg/kg/injection, schedule: Q01DX009 (ip), vehicle: acid diluted with saline 100 % of control

Cc1ccc(N=NC2=C3Sc4ccccc4N=C2N(c2ccc(Br)cc2)C(=S)N3c2ccc(Cl)cc2)cc1
inactive: [13] 102 % of control | [14] 90 % of control | [15] 88 % of control

S=C(NC1CCCCC1)NC1CCCCC1
inactive: [3] 90 % of control | [1] 95 % of control | [4] 90 % of control | dose: 200.0 mg/kg/injection, schedule: Q04DX003 (ip), vehicle: saline with Tween-80 90 % of control | dose: 400.0 mg/kg/injection, schedule: Q01DX009 (ip), vehicle: saline with Tween-80 86 % of control | dose: 400.0 mg/kg/injection, schedule: Q04DX003 (ip), vehicle: saline with Tween-80 90 % of control

CC1(C)N=C(N)N=C(N)N1c1ccc(CCc2ccccc2)c(Cl)c1
inactive: dose: 4.1 mg/kg/injection, schedule: Q01DX009 (ip), vehicle: saline with Tween-80 118 % of control | dose: 6.25 mg/kg/injection, schedule: Q04DX003 (ip), vehicle: saline sonified 113 % of control | dose: 9.3 mg/kg/injection, schedule: Q01DX009 (ip), vehicle: saline with Tween-80 118 % of control | dose: 12.5 mg/kg/injection, schedule: Q04DX003 (ip), vehicle: saline sonified 104 % of control | dose: 25.0 mg/kg/injection, schedule: Q04DX003 (ip), vehicle: saline sonified 100 % of control

C/C(=N\N=C(/[Se])N1CCCCC1C)c1ccccn1 (configuration not stated)
inactive: dose: 12.5 mg/kg/injection, schedule: Q04DX003 (ip), vehicle: Klucel (hydroxypropylcellulose) (HPC) 101 % of control | dose: 25.0 mg/kg/injection, schedule: Q04DX003 (ip), vehicle: Klucel (hydroxypropylcellulose) (HPC) 114 % of control
